Test results from publication PMC5472792, “Bub1 positions Mad1 close to KNL1 MELT repeats to promote checkpoint signalling” (Nature Communications, 2017).
Numbering of substitutions follows the chain as printed. Square brackets hold non-standard residues; d marks the D form. Peptide text beside a SMILES is read from it. * marks the point of attachment. Biotin = O=C1N[C@H]2[C@H](CS[C@H]2CCCCC(=O)*)N1; pT = C[C@@H](OP(=O)(O)O)[C@H](N)C(=O)O; Nle = CCCC[C@H](N)C(=O)O

What was measured:
Mad1 597–718 = biological target: T1, Mad1 597–718 (Homo sapiens, UniProt Q9Y6D9); assay: SPR, binding of CD1 peptides to Mad1 597–718 (steady-state affinity); settings: ratio of Kd, SPR, Mad1 597–718
T1 construct: His (N); Strep (N); made in house; host or cells: E. coli BL21(DE3)
T1 sequence (Q9Y6D9 597-718): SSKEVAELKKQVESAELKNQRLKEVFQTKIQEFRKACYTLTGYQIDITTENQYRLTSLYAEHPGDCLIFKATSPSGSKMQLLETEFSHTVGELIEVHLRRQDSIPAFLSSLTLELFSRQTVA
From the text: (§1) To further investigate a possible direct interaction between Mad1 and CD1, we used surface plasmon resonance technology. […] To achieve a more efficient synthesis of CD1 peptides and in particularly of the phosphorylated peptides we used norleucine (Nle) instead of methionine (Met) but we cannot exclude that Mad1 will have a different affinity for peptides containing methionine. […] Given that Ser459 and Thr461 phosphorylation was critical for Bub1 functionality in vivo we tested if they affected Mad1 597–718 binding. […] As the Mad1 RLK motif is required for binding Bub1 in budding yeast in vivo[39], we tested whether this motif was required for direct binding to CD1 phosphorylated on Thr461. […] We furthermore analysed the binding of Mad1 597–718 to CD1 peptides harboring the Ile471Asp and […] (residues 474–476) mutations with Thr461 being phosphorylated.
Figure 4 Direct binding of Mad1 to CD1 peptide. (a) SPR steady-state responses for control, WT, pS459, pT461, pS459/pT461, I471D, MFQ/RKK and control Bub1 CD1 peptides to purified Mad1 597–718 protein. The biotinylated peptides were captured on a streptavidin-coated CM5 chip and increasing concentrations of Mad1 were subsequently added for binding assessment. Empty symbols represent experimental data points from two technical replicates using the same chip. An additional independent experiment with two replicates has been performed giving in all cases consistent results. The equilibrium dissociation constants, KD, were calculated using a steady-state affinity model and the lines represent the best fit to the model. […] (b) Similar to a, SPR steady-state responses for pT461 peptide with purified Mad1 597–718 or Mad1 597–718 RLK/AAA or the Mad1 485–718/Mad2 complex. (c) Sequence and summary of the affinity of CD1 peptides for Mad1 597–718 as determined by SPR.
Bub1 peptides were purchased from Biosyntan Gmbh (Germany). The purity obtained in the synthesis was 95–98% as determined by high-performance liquid chromatography (HPLC) and the identity of the peptides was confirmed by mass spectrometry. SPR experiments were performed on a Biacore T200 (GE Healthcare) at 25 °C. Streptavidin (ThermoFisher Scientific) at 0.05 mg ml^−1 in 10 mM sodium acetate, pH 4.5, was directly immobilized on a CM5 sensor chip (GE Healthcare) by standard amine coupling chemistry with N-hydroxysuccinimide and N-ethly-N′-(3-dimethlyaminopropyl)carbodiimide up to an immobilization level of approximately 2000 RU. Unreacted sites were quenched with ethanolamine HCl. Subsequently, N-terminal biotinylated Bub1 peptides (at 10 nM in HBS-EP+ buffer and flow rate 5 μl min^−1) were captured at ∼50 RU, respectively, in channels 2, 3 and 4 of the streptavidin coated chip, leaving channel 1 free for reference. An identical approach was used to prepare a second CM5 chip with the negative controls. In this case, a N-terminal biotinylated 5A mutant, a non-related phosphorylated peptide and the Bub1 pT461 peptide were captured, respectively, in channels 2, 3 and 4. HBS-EP+ (10 mM Hepes, pH 7.4, 150 mM NaCl, 3 mM EDTA, 0.05% (v/v) Surfactant P20) was used as running buffer for both streptavidin immobilization and peptide capture. […] Sensorgrams were analysed after double referencing. […]

Mad1 597–718 RLK/AAA = biological target: T2, Mad1 597–718 RLK/AAA (Homo sapiens, UniProt Q9Y6D9, K619A/L618A/R617A); assay: SPR, binding of CD1 peptide to Mad1 597–718 RLK/AAA; settings: Mad1 597–718 RLK/AAA injected up to 250 μM, 25 °C
T2 construct: His; Strep; made in house; host or cells: E. coli BL21(DE3) (stated for the wild-type construct)
T2 sequence (Q9Y6D9 597-718 R617A/L618A/K619A limits assumed): T1 sequence (Q9Y6D9 597-718) with R21A, L22A, K23A
From the text: as §1
Figure 4 Direct binding of Mad1 to CD1 peptide. […] The equilibrium dissociation constants, KD, were calculated using a steady-state affinity model and the lines represent the best fit to the model. […] (c) Sequence and summary of the affinity of CD1 peptides for Mad1 597–718 as determined by SPR.
Bub1 peptides were purchased from Biosyntan Gmbh (Germany). The purity obtained in the synthesis was 95–98% as determined by high-performance liquid chromatography (HPLC) and the identity of the peptides was confirmed by mass spectrometry. […]

## CCCC[C@H](NC(=O)[C@H](CC(N)=O)NC(=O)[C@H](CCCC)NC(=O)[C@@H](NC(=O)[C@H](Cc1ccccc1)NC(=O)CNC(=O)[C@H](CC(C)C)NC(=O)[C@H](C)NC(=O)[C@H](CCC(=O)O)NC(=O)[C@H](CCCCN)NC(=O)[C@@H](NC(=O)[C@H](Cc1c[nH]cn1)NC(=O)[C@@H](NC(=O)[C@@H](NC(=O)[C@@H]1CCCN1C(=O)[C@H](CO)NC(=O)[C@@H]1CCCN1C(=O)[C@H](CCC(N)=O)NC(=O)[C@@H](NC(=O)[C@H](CCCCN)NC(=O)[C@H](CO)NC(=O)[C@@H]1CCCN1C(=O)[C@@H](NC(=O)[C@H](C)NC(=O)[C@H](CCC(N)=O)NC(=O)[C@@H](NC(=O)CCCC[C@@H]1SC[C@@H]2NC(=O)N[C@@H]21)C(C)C)[C@@H](C)O)C(C)C)[C@@H](C)OP(=O)(O)O)C(C)C)[C@@H](C)O)[C@@H](C)CC)C(=O)N[C@@H](Cc1ccccc1)C(=O)N[C@@H](CCC(N)=O)C(=O)N[C@@H](C)C(=O)N1CCC[C@H]1C(=O)N[C@H](C(=O)N[C@@H](CC(C)C)C(=O)N[C@@H](Cc1c[nH]c2ccccc12)C(=O)O)[C@@H](C)O [CD1 pT461] (Biotin-VQATPSKVQPSP[pT]VHTKEALGFI[Nle]N[Nle]FQAPTLW-OH; C-terminus assumed)
Mad1 597–718
  stronger binding to Mad1 than unphosphorylated CD1 peptide: 10 fold
Mad1 597–718 RLK/AAA
  binding: no binding
